Test results taken from article PMC8943139, “Cryo-EM structure of transmembrane AAA+ protease FtsH in the ADP state” (Communications Biology, 2022).

Key:
[1] = target: T1, TmFtsH (FtsH from Thermotoga maritima), full length (Thermotoga maritima, UniProt Q9WZ49, H423Y); assay: cryo-EM structure ([…] A); format: binding; details: six ADP per hexamer, one in each ATPase domain; endogenous co-purified ADP, none added; MSP1D1 nanodiscs, pH 7.6; C6 symmetry
T1 construct: full length, His-tag purification (HisTrap), E. coli BL21(DE3) pLysS membranes, LDAO, reconstituted in MSP1D1 nanodiscs with soybean polar lipids; homohexamer; only ATPase and protease domains modelled (2484 residues per hexamer)

[2] = target: the molecule itself; assay: cryo-EM structure; TmFtsH H423Y in MSP1D1 nanodiscs (soybean polar lipids), diluted in 20 mM HEPES pH 7.6, 100 mM NaCl, 0.05% CHAPS; no ADP or ATP added; C6 reconstruction at 3.15 Å (C1: 3.4 Å) of the ATPase and protease domains; full-length reconstruction at 7.9 Å without symmetry

Row | Molecule | cryo-EM structure (3.15 A) [1] | stoichiometry N [2]
1 | Nc1ncnc2c1ncn2[C@@H]1O[C@H](COP(=O)(O)OP(=O)(O)O)[C@@H](O)[C@H]1O [ADP] | ADP bound endogenously to TmFtsH and survived the co-purification and reconstitution processes | –
2 | Thermotoga maritima FtsH (TmFtsH) H423Y mutant, full length (enzyme, UniProt Q9WZ49 1-610, looked up, FtsH (Filamentation Temperature Sensitive Protein H) of Thermotoga maritima, full-length cDNA in the pET24-derived pMSCG-7 plasmid, with the H423Y mutation; 610 residues are named in the comparison with YME1; The vector probably adds an N-terminal His6 tag with a TEV site (surmised), and no cleavage is described; The atomic model 7TDO covers only the ATPase and protease domains (2484 residues in …)) MNRSNIWNLLFTILIIVTLFWLARFFYVENSPVSKLSYTSFVQMVEDERSVVSEVVIRDDGVLRVYTKDGRVYEVDAPWAVNDSQLIEKLVSKGIKVSGERSGSSSFWINVLGTLIPTILFIVVWLFIMRSLSGRNNQAFTFTKSRATMYKPSGNKRVTFKDVGGAEEAIEELKEVVEFLKDPSKFNRIGARMPKGILLVGPPGTGKTLLARAVAGEANVPFFHISGSDFVELFVGVGAARVRDLFAQAKAHAPCIVFIDEIDAVGRHRGAGLGGGHDEREQTLNQLLVEMDGFDSKEGIIVMAATNRPDILDPALLRPGRFDKKIVVDPPDMLGRKKILEIHTRNKPLAEDVNLEIIAKRTPGFVGADLENLVNEAALLAAREGRDKITMKDFEEAIDRVIAGPARKSKLISPKEKRIIAYYEAGHAVVSTVVPNGEPVHRISIIPRGYKALGYTLHLPEEDKYLVSRNELLDKLTALLGGRAAEEVVFGDVTSGAANDIERATEIARNMVCQLGMSEELGPLAWGKEEQEVFLGKEITRLRNYSEEVASKIDEEVKKIVTNCYERAKEIIRKYRKQLDNIVEILLEKETIEGDELRRILSEEFEKVVE | – | 6
